Test results from PubChem BioAssay (NCI).
Values joined by “and” are separate entries in the source; they are usually repeats but may differ in a detail not shown here. Identical values can stand only once.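 Protocol summary: plate cells (96-well), add compound at 5 concentrations, incubate 48 h, interpolate endpoints linearly. The concentration for 50% growth inhibition is given as GI50. TGI marks complete inhibition of growth.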

What was measured:
Assay in all cases: inhibition of tumour cell growth, NCI panel, 48 h
[1] = test system: SK-MEL-2 melanoma
[2] = test system: KM12 colon
[3] = test system: MALME-3M melanoma
[4] = test system: HL-60(TB) leukemia
[5] = test system: CCRF-CEM leukemia
[6] = test system: SF-268 CNS
[7] = test system: CAKI-1 renal
[8] = test system: DU-145 prostate
[9] = test system: K-562 leukemia
[10] = test system: SW-620 colon

| Structure (SMILES) | GI50 [1] | TGI [1] | GI50 [2] [µM] | TGI [2] [µM] | GI50 [3] | TGI [3] | GI50 [4] [µM] | TGI [4] | GI50 [5] | TGI [5] [µM] | GI50 [6] | TGI [6] [µM] | GI50 [7] [µM] | TGI [7] [µM] | GI50 [8] | TGI [8] [µM] | TGI [9] [µM] | TGI [10] [µM] | GI50 [9] | GI50 [10] |
| --- | --- | --- | --- | --- | --- | --- | --- | --- | --- | --- | --- | --- | --- | --- | --- | --- | --- | --- | --- | --- |
| CCOC(=O)c1c2c(n3ccc(NC(=O)CCN4CCCC4)cc13)C(=O)c1ncccc1C2=O | 18.5 µM | 39.3 µM | 1.52 | 3.32 | 15.8 µM | 41.4 µM | 1.07 | 3.32 µM | 1.88 µM | 5.41 | 0.794 µM | 2.65 | 0.181 | 1.55 | 1.46 µM | 2.96 |  |  |  |  |
| C=CCn1c2c(c3ccccc3c1=O)C(=O)c1ccccc1-2 |  | > 100 µM |  | > 100 |  | > 100 µM |  | > 100 µM |  | > 100 |  | > 100 |  | > 100 |  | > 100 | > 100 | > 100 |  |  |
| COc1ccc2nc(N/N=C(\C)c3ccccn3)cc(C)c2c1 | 0.174 µM | 0.973 µM | 0.321 | 1.6 | 0.23 µM | 0.697 µM | 0.384 | 7.01 µM | 0.0679 µM | 0.4 | 0.228 µM | 1.46 | 0.271 | 1.17 | 0.215 µM | 1.17 | 1.3 | 1.75 | 0.303 µM | 0.381 µM |
| CN1CC[C@@H](c2c(O)cc(O)c3c(=O)cc(-c4ccccc4Cl)oc23)[C@@H](O)C1 | 0.124 µM and 0.071 µM | 0.215 µM and 0.209 µM and 0.101 µM | 0.0511 | 26.6 | 0.166 µM and 0.144 µM | 0.439 µM and 0.465 µM | 0.0148 | 0.0693 µM and 0.338 µM | 0.038 µM and 0.0412 µM |  | 0.0577 µM and 0.0288 µM |  |  | > 39.6 | 0.0774 µM and 0.0902 µM |  |  | 23.2 | 0.212 µM and 0.145 µM | 0.0594 µM and 0.0653 µM |
| O=C1NCc2ccc3c(-c4cccc(Cl)c4)c[nH]c3c21 | 0.317 µM | > 50 µM | 0.196 | > 29.7 | 0.191 µM | > 50 µM | 0.146 |  | 0.192 µM | > 50 | 0.5 µM | > 50 | 0.205 | > 50 | 0.279 µM | > 50 | > 50 | > 50 | 0.134 µM | 0.195 µM |
| Cc1cc(-c2ncc(CC(=O)Nc3ccc(-c4cnccn4)cn3)cc2C)ccn1 | 27.8 µM | > 100 µM | 36.1 | > 100 | 21.2 µM | > 100 µM | 39.3 | > 100 µM | 35.8 µM | > 100 | 96 µM | > 100 | 17.1 | > 100 | 72.9 µM | > 100 | > 100 | > 100 | 22.2 µM | 98.7 µM |
| COc1ccc2c(c1)[nH]c(=O)c1c3cc(C)c(C)cc3cn21 | < 0.0208 µM | 6.19 µM | 0.0292 | 0.109 | 0.161 µM | 2.76 µM | < 0.01 | < 0.013 µM | < 0.0149 µM |  | < 0.01 µM | 1.45 | < 0.01 | 0.0102 | < 0.01 µM | 0.188 | 0.14 | 1.47 | < 0.01 µM | < 0.01 µM |
